Like-named read-outs stand apart in the source and are kept apart here.
Experiments:
[1] = target: CRBN-DDB1 (Homo sapiens (Human), UniProt Q96SW2); experiment: Compound binding to CRBN by HTRF assay
In short: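 Ki calculated via Cheng-Prusoff from geometric-mean EC50 values, after normalizing the HTRF ratio to lenalidomide (active) and DMSO (neutral) controls. Compounds (11 points, 1:3 steps) incubated 30 min at ambient temperature with CRBN-DDB1 2.5 nM, anti-His Tb cryptate and Cy5-thalidomide tracer 100 nM.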

[2] = target: NEK7 (Homo sapiens (Human), UniProt Q8TDX7+Q96SW2); experiment: NEK7 NanoBiT degradation assay in Cal51 NEK7 NanoBiT cell line; assay type: cell-based; details: Cal51 NEK7 NanoBiT cells, 24 hours; for Dmax: CAL-51
Sequence of NEK7 (Q8TDX7 whole entry): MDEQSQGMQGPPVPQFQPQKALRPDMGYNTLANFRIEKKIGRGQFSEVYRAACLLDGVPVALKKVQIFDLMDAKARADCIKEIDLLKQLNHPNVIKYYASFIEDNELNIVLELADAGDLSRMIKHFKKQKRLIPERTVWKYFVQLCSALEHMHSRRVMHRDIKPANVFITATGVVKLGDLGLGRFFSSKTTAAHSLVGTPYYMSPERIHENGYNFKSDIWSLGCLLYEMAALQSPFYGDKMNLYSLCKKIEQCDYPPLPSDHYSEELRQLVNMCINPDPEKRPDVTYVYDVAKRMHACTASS
Sequence of NEK7 (Q96SW2 whole entry): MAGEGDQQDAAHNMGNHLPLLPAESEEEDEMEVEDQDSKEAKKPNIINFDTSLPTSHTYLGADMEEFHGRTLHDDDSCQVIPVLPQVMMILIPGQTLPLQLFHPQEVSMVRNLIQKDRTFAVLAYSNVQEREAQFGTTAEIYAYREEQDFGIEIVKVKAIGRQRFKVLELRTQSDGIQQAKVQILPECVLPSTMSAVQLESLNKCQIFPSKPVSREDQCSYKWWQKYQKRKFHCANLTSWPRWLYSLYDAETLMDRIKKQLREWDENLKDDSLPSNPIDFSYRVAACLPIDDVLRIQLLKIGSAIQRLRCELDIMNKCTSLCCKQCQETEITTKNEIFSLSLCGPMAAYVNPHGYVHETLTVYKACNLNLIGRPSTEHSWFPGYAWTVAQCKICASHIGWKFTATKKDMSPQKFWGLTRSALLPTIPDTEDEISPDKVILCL
Sequence of NEK7 (Q16531 2-1140 partner): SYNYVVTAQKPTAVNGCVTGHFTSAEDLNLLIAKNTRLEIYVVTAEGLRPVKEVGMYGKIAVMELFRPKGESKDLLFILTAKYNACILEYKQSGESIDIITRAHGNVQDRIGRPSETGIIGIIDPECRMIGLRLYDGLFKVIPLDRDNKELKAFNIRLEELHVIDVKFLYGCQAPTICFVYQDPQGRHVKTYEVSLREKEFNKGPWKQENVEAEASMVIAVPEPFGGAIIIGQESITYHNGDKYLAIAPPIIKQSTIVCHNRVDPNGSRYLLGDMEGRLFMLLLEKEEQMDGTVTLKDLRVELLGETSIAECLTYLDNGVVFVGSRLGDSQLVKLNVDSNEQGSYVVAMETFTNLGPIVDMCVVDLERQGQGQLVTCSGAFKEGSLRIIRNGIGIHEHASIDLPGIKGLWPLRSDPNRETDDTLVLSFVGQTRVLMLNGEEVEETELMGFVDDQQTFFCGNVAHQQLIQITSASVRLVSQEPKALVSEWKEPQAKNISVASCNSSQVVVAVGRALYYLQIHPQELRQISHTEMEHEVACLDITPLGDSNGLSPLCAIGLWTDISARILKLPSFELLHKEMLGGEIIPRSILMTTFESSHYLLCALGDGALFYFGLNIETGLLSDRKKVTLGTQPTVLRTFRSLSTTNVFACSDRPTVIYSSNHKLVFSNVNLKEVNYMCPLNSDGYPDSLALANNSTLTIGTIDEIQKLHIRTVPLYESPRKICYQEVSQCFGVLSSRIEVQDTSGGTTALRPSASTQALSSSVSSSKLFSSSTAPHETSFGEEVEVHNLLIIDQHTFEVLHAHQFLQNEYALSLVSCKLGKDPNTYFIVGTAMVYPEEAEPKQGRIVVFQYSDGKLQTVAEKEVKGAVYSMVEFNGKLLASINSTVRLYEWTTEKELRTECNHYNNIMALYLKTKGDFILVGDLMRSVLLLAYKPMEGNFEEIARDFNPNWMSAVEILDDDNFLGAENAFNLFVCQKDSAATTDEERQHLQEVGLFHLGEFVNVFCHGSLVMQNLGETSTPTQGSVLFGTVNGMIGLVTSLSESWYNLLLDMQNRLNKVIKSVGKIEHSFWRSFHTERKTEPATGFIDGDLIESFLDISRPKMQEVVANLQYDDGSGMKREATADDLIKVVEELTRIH
In short: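 EC50 comes from a 4-parameter fit of control-normalized luminescence. The luminescence reports HiBiT-NEK7 (endogenous knock-in) complemented by stably expressed LgBiT in Cal51 cells after 24 h compound exposure at 37 °C. Final concentrations ran 1 μM to 0.05 nM, with Endurazine substrate present in the medium throughout.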

[3] = NEK7 degradation, read-out: NanoBiT Dmax
[4] = NEK7 degradation, read-out: NanoBiT DC50

Sequence of CRBN-DDB1 (Q96SW2 whole entry): as the sequence (Q96SW2 whole entry) above
Sequence of CRBN-DDB1 (Q16531 whole entry partner): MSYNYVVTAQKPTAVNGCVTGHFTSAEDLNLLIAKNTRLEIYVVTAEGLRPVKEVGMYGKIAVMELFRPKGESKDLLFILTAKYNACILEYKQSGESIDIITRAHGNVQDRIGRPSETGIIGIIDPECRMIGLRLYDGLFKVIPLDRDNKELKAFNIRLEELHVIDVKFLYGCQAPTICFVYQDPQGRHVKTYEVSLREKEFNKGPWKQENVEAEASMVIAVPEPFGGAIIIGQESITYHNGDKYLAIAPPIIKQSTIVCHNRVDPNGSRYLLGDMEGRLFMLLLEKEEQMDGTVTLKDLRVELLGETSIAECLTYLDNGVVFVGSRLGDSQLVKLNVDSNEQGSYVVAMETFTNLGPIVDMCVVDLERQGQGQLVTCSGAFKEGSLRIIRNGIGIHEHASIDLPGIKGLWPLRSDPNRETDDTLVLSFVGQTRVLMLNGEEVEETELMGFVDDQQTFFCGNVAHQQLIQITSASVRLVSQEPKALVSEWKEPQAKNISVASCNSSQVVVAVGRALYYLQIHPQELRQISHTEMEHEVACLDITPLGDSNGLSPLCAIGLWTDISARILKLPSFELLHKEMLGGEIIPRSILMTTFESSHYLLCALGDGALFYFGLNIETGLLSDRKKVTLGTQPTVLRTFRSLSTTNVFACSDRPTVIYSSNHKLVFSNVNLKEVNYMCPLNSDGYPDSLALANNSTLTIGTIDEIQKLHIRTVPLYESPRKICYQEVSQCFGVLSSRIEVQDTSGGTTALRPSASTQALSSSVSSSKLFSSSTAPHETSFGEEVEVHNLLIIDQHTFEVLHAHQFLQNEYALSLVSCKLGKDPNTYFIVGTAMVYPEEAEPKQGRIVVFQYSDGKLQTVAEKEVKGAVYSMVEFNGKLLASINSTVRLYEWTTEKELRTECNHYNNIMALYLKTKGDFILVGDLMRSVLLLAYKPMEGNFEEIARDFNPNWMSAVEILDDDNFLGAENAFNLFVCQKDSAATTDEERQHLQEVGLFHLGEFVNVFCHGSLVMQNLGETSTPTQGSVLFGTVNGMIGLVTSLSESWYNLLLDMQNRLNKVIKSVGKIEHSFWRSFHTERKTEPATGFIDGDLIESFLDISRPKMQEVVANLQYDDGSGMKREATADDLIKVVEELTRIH

| EC50 [1] [nM] | EC50 ([1]; HTRF class, Cereblon binding) [nM] | Dmax ([2]; read-out: NEK7 NanoBiT Dmax) [%] | Dmax [2, 3] [%] | DC50 ([2]; read-out: NEK7 NanoBiT DC50) [nM] | DC50 [2, 4] [nM] | Compound |
| --- | --- | --- | --- | --- | --- | --- |
| 70 | ≤ 100 | 95 | > 75 | 3 | ≤ 100 | CC(C)(C(=O)NCc1cc(Cl)c(C2CCC(=O)NC2=O)c(Cl)c1)c1ccc2[nH]c(=O)oc2c1 (stereo not drawn) [Compound 77] |
| 60 | ≤ 100 | 97 | > 75 | 0.4 | ≤ 100 | Cn1ncc2ccc(C(C)(C)C(=O)NCc3cc(Cl)c(C4CCC(=O)NC4=O)c(Cl)c3)cc21 (stereo not drawn) [Compound 78] |
| 250 | 100 to 1000 | 83 | > 75 | 92 | ≤ 100 | CC(C)(C(=O)NCc1cc(Cl)c(C2CCC(=O)NC2=O)c(Cl)c1)c1ccc(=O)[nH]c1 (stereo not drawn) [Compound 79] |
| 30 | ≤ 100 | 97 | > 75 | 1 | ≤ 100 | CC(C)(C(=O)NCc1cc(Cl)c(C2CCC(=O)NC2=O)c(Cl)c1)c1ccc(O)c(F)c1 (stereo not drawn) [Compound 80] |
| 70 | ≤ 100 | 98 | > 75 | 0.4 | ≤ 100 | CC(C)(C(=O)NCc1cc(Cl)c(C2CCC(=O)NC2=O)c(Cl)c1)c1ccc2nonc2c1 (stereo not drawn) [Compound 81] |
| 90 | ≤ 100 | 96 | > 75 | 1 | ≤ 100 | CC(C)(C(=O)NCc1cc(Cl)c(C2CCC(=O)NC2=O)c(Cl)c1)c1ccn2nccc2c1 (stereo not drawn) [Compound 82] |
| 140 | 100 to 1000 | 94 | > 75 | 7 | ≤ 100 | CC(C)(C(=O)NCc1cc(Cl)c(C2CCC(=O)NC2=O)c(Cl)c1)c1ccc(C(N)=O)cc1 (stereo not drawn) [Compound 83] |
| 180 | 100 to 1000 | 93 | > 75 | 22 | ≤ 100 | CC(C)(C(=O)NCc1cc(Cl)c(C2CCC(=O)NC2=O)c(Cl)c1)c1cc[nH]c(=O)c1 (stereo not drawn) [Compound 84] |
| 40 | ≤ 100 | 81 | > 75 | 11 | ≤ 100 | CC(C)(C(=O)NCc1cc(Cl)c(C2CCC(=O)NC2=O)c(Cl)c1)c1cncc(F)c1 (stereo not drawn) [Compound 85] |
| 160 | 100 to 1000 | 85 | > 75 | 21 | ≤ 100 | Cc1cc(C(C)(C)C(=O)NCc2cc(Cl)c(C3CCC(=O)NC3=O)c(Cl)c2)cc(C)n1 (stereo not drawn) [Compound 86] |
| 30 | ≤ 100 | 97 | > 75 | 0.1 | ≤ 100 | CC(C)(C(=O)NCc1cc(Cl)c(C2CCC(=O)NC2=O)c(Cl)c1)c1ccc2occc2c1 (stereo not drawn) [Compound 87] |
| 110 | 100 to 1000 | 93 | > 75 | 4 | ≤ 100 | CC(C)(C(=O)NCc1cc(Cl)c(C2CCC(=O)NC2=O)c(Cl)c1)c1ccncc1F (stereo not drawn) [Compound 88] |
| 120 | 100 to 1000 | 92 | > 75 | 6 | ≤ 100 | Cc1ccc(C(C)(C)C(=O)NCc2cc(Cl)c(C3CCC(=O)NC3=O)c(Cl)c2)nc1 (stereo not drawn) [Compound 89] |
| 50 | ≤ 100 | 94 | > 75 | 4 | ≤ 100 | Cn1ccc2cc(C(C)(C)C(=O)NCc3cc(Cl)c(C4CCC(=O)NC4=O)c(Cl)c3)ccc21 (stereo not drawn) [Compound 90] |
| 40 | ≤ 100 | 97 | > 75 | 0.4 | ≤ 100 | CC(C)(C(=O)NCc1cc(Cl)c(C2CCC(=O)NC2=O)c(Cl)c1)c1ccc2[nH]ccc2c1 (stereo not drawn) [Compound 91] |
| 180 | 100 to 1000 | 71 | 50 to 75 | 65 | ≤ 100 | CC(C)(C(=O)NCc1cc(Cl)c(C2CCC(=O)NC2=O)c(Cl)c1)c1ccnc(C#N)c1 (stereo not drawn) [Compound 92] |
| 110 | 100 to 1000 | 95 | > 75 | 3 | ≤ 100 | COc1cc(C(C)(C)C(=O)NCc2cc(Cl)c(C3CCC(=O)NC3=O)c(Cl)c2)ccn1 (stereo not drawn) [Compound 98] |
| 80 | ≤ 100 | 87 | > 75 | 8 | ≤ 100 | CC(C)(C(=O)NCc1cc(Cl)c(C2CCC(=O)NC2=O)c(Cl)c1)c1cccnc1 (stereo not drawn) [Compound 99] |
| 180 | 100 to 1000 | 89 | > 75 | 20 | ≤ 100 | CC(C)(C(=O)NCc1ccc(C2CCC(=O)NC2=O)c(Cl)c1)c1ccccc1 (stereo not drawn) [Compound 103] |
| 240 | 100 to 1000 | 80 | > 75 | 26 | ≤ 100 | CC(C)(C(=O)NCc1cc(F)c(C2CCC(=O)NC2=O)c(Cl)c1)c1ccncc1 (stereo not drawn) [Compound 106] |
| 440 | 100 to 1000 | 82 | > 75 | 28 | ≤ 100 | Cc1cc(CNC(=O)C(C)(C)c2ccncc2)cc(Cl)c1C1CCC(=O)NC1=O (stereo not drawn) [Compound 107, N-(3-chloro-4-(2,6-dioxopiperidin-3-yl)-5-methylbenzyl)-2-methyl-2-(pyridin-4-yl)propanamide] |
| 480 | 100 to 1000 | 69 | 50 to 75 | 250 | 100 to 1000 | CC(C)(C(=O)NCc1ccc(C2CCC(=O)NC2=O)c(Cl)c1)c1ccncc1 (stereo not drawn) [Compound 109] |
| 100 | ≤ 100 | 68 | 50 to 75 | 61 | ≤ 100 | CC(C)(C(=O)NCc1cc(Cl)c(C2CCC(=O)NC2=O)c(Cl)c1)c1ccno1 (stereo not drawn) [Compound 120, N-(3,5-dichloro-4-(2,6-dioxopiperidin-3-yl)benzyl)-2-(isoxazol-5-yl)-2-methylpropanamide] |
| 290 | 100 to 1000 | 80 | > 75 | 30 | ≤ 100 | CC(C)(C(=O)NCc1cc(Cl)c(C2CCC(=O)NC2=O)c(Cl)c1)c1ccon1 (stereo not drawn) [Compound 121] |
| 230 | 100 to 1000 | 73 | 50 to 75 | 56 | ≤ 100 | CC(C)(C(=O)NCc1cc(Cl)c(C2CCC(=O)NC2=O)c(Cl)c1)c1cnco1 (stereo not drawn) [Compound 122] |
| 610 | 100 to 1000 | 70 | 50 to 75 | 100 | 100 to 1000 | Cn1cncc1C(C)(C)C(=O)NCc1cc(Cl)c(C2CCC(=O)NC2=O)c(Cl)c1 (stereo not drawn) [Compound 123] |
| 140 | 100 to 1000 | 73 | 50 to 75 | 78 | ≤ 100 | CC(C)(C(=O)NCc1cc(Cl)c(C2CCC(=O)NC2=O)c(Cl)c1)c1ncco1 (stereo not drawn) [Compound 124] |

Source: patent US20250243180A1, “TARGETED PROTEIN DEGRADATION” (Monte Rosa Therapeutics AG, priority 2023, published 2025)
